The source of these data is US20080207624A1, “Therapeutic Agent for Bh4-Responsive Hyperphenylalaninemia” (priority 2004, published 2008).

The nature of series [1]: Example 2: stability of sapropterin hydrochloride mixed 1:5 with sweeteners, uncapped vial 40° C., 75% RH. The note with it: 8 weeks. It counts as physicochemical. The procedure:
Sapropterin hydrochloride was mixed at a 1:5 ratio with each of the three sweeteners described above. 2 g of the mixture was placed in a glass vial and the vial was left uncapped at 40° C., 75% RH, to evaluate the stability of the preparation and sapropterin hydrochloride. […] The preparations using sucrose and fructose even underwent deliquescence. The remaining sapropterin hydrochloride was quantified by liquid chromatography that can differentiate sapropterin hydrochloride from its analogues. The area of the peak for sapropterin hydrochloride was determined and was used to calculate the remaining sapropterin hydrochloride (The same procedure was followed in other examples).

A short description of series [2]: Example 7: stability of sapropterin hydrochloride blended 200:1 with coloring agents. Format: physicochemical. The procedure:
Sapropterin hydrochloride was mixed at a 200:1 ratio with different coloring agents. 0.2 g of each mixture was placed in a glass vial, which was then sealed with a metal cap and was stored at 40° C. and 75% RH for 4 weeks. Subsequently, the mixtures were evaluated for stability (i.e., change in appearance, amount of remaining active ingredient).

Where a name gives a salt, the structure may show the parent alone.

For `C[C@H](O)[C@H](O)[C@H]1CNc2nc(N)[nH]c(=O)c2N1` [None, sapropterin hydrochloride], in series [1], the “% amount of remaining sapropterin hydrochloride after storage” value worked out at 98.7% and the Appearance after storage entry is reported as “Yellowish white”. Further, the “% amount remained” value in series [2] (After 4-week storage (40° C./75% RH), sealed vial) is 99.6%. Moreover, in series [2] (before storage), the Initial appearance entry was “White”.
